According to US20200341000A1, “METHOD OF SCREENING COMPOUNDS FOR TREATING CNS DISORDERS” (SAGE THERAPEUTICS, INC., priority 2017, published 2020):
Entries after “also recorded” stand apart in the source; their conditions may differ.

Key:
[1] = system: GABAA receptor β3 subunit S408/9 phosphorylation; assay: Immunoblot of β3 S408/9 phosphorylation in hippocampal slices; assay type: cell-based, mice; settings: 100 nM
Protocol: Hippocampi were dissected out of acute slices from 8 to 12 week old C57/B16 mice and lysed with phosphate buffer including: 20 mM Tris-HCl, 150 mM NaCl, 5 mM EDTA, 10 mM NaF, 2 mM Na3VO4, 10 mM pyrophosphate, 0.1% SDS and 1% Triton after drug treatment. The β3 subunit was isolated using immunoprecipitation with β3 antibodies, after correction for protein content and the specific activity of labeling. Results were attained by SDS/PAGE followed by autoradiography (Abramian et al., 2010). For biotinylation experiments hippocampi were dissected out of acute slices from 8 to 12 week old C57/B16 mice and incubated in artificial cerebrospinal fluid (ACSF) described above at 30° C. for 1 h for recovery before experimentation. Slices were then placed on ice and incubated for 30 min with 1 mg/mL NHS-SS-biotin (Pierce). Excess biotin was removed by a 50 mM glycine quenching buffer, followed by washing of slices three times in ice-cold ACSF. The tissue was snap frozen on dry ice for 5 min, thawed at 4° C. and lysed. The lysates were solubilized with 2% Triton at 4° C. on a rotating wheel for 1 h. The insoluble material was removed by centrifugation, and 350-500 μg of protein lysate were incubated with NeutrAvidin beads (Pierce) for 18-24 h at 4° C. Bound material was eluted with sample buffer and subjected to SDS/PAGE and then immunoblotted with the indicated antibodies. Blots were then quantified using the CCD-based ChemiDoc XRS ? system. Antibodies against the β3 subunit and the phospho-β3 antibody were generated and verified by the laboratory of S.J.M. (Vien et al., 2015).
To produce antibodies specific for phosphorylated S443, rabbits were injected with a synthetic peptide corresponding to residues […] of the murine α4 subunit in which the serine residue corresponding to S443 was chemically phosphorylated; […]. Hippocampal slices were treated with vehicle (Con), or SGE-516 for 20 min. Slices were immunoblotted with pS408/9, β3, or actin antibodies. The ratio of pS408/9/β3 immunoreactivity was then normalized to control slices (100%=the line).
Hippocampal slices were treated with 100 nM ALLO or P4 (progesterone), and S408/9 phosphorylation was then determined as detailed above, n=4 slices (FIG. 18D). Hippocampal slices were treated with 100 nM ORG (FIG. 18E). S408/9 phosphorylation was examined using immunoblotting.

[2] = target: T1, GABAARs composed of α4β3 subunits (Homo sapiens, UniProt P28472+P48169); assay: Acute modulation of GABA-induced currents in HEK-293 cells; assay type: cell-based; design: dose or concentration left out as unconfirmed; settings: rapidly applied with GABA
T1 construct: expressed in transfected cells; host or cells: HEK-293

[3] = system: GABA-evoked currents in GT1-7 cells; assay: Patch-clamp of GABA-induced currents in GT1-7 cells, compound in the pipette electrolyte; assay type: cell-based; settings: 100 nM in electrolyte, GABA EC20, 20 min time course
Protocol: Patch-clamp recordings were made from GT1-7 cells. The magnitude of the GABA-induced currents (IGABA) at EC20 agonists concentration were then measured, in the presence of control electrolyte or that supplemented with 100 nM ALLO, or 100 nM ORG OD 02-0 over a time course of 20 min.

[4] = system: tonic current in dentate gyms granule cells (DGGCs); assay: Sustained (metabotropic) enhancement of tonic current in DGGCs after 15 min exposure and washout; assay type: cell-based, mice; settings: protocol as in FIG. 3; n=6-8 cells
Protocol: Brain slices were prepared from 3- to 5-week-old male C57 mice. Mice were anesthetized with isoflurane, decapitated, and brains were rapidly removed and submerged in ice-cold cutting solution containing (mM): 126 NaCl, 2.5 KCl, 0.5 CaCl2, 2 MgCl2, 26 NaHCO3, 1.25 NaH2PO4, 10 glucose, 1.5 sodium pyruvate, and 3 kynurenic acid. Coronal 310 μm thick slices were cut with the vibratome VT1000S (Leica Microsystems, St Louis, Mo., USA). The slices were then transferred into incubation chamber filled with prewarmed (31-32° C.) oxygenated artificial cerebro-spinal fluid (ACSF) of the following composition (in mM): 126 NaCl, 2.5 KCl, 2 CaCl2, 2 MgCl2, 26 NaHCO3, 1.25 NaH2PO4, 10 glucose, 1.5 sodium pyruvate, 1 glutamine, 3 kynurenic acid and 0.005 GABA bubbled with 95% O2-5% CO2. Slices were allowed to recover at 32° C. for at least 1 hr before recording. Exogenous GABA was added in an attempt to standardize ambient GABA in the slice and provide an agonist source for newly inserted extrasynaptic GABAARs.
After recovery, a single slice was transferred to a submerged, dual perfusion recording chamber (Warner Instruments, Hamden, Conn., USA) on the stage of an upright microscope (Nikon FN-1) with a 40× water immersion objective equipped with DIC/IR optics. Slices were maintained at 32° C. and gravity-superfused with ACSF solution throughout experimentation and perfused at rate of 2 ml/min with oxygenated (O2/CO2 95/5%) ACSF.
Whole-cell currents were recorded from the dentate gyms granule cells (DGGCs) in 310-μm-thick coronal hippocampal slices. Patch pipettes (5-7MΩ) were pulled from borosilicate glass (World Precision Instruments) and filled with intracellular solution of the composition (in mM) as follows: 140 CsCl, 1 MgCl2, 0.1 EGTA, 10 HEPES, 2 Mg-ATP, 4 NaCl and 0.3 Na-GTP (pH=7.2 with CsOH). A 5 min period for stabilization after obtaining the whole-cell recording conformation (holding potential of −60 mV) was allowed before currents were recorded using an Axopatch 200B amplifier (Molecular Devices), low-pass filtered at 2 kHz, digitized at 20 kHz (Digidata 1440A; Molecular Devices), and stored for offline analysis.
For tonic current measurements, an all-points histogram was plotted for a 10 s period before and during 100 μM picrotoxin application, once the response reached a plateau level. Recordings with unstable baselines were discarded. Fitting the histogram with a Gaussian distribution gave the mean baseline current amplitude and the difference between the amplitudes before and during picrotoxin was considered to be the tonic current. The negative section of the all-points histogram which corresponds to the inward IPSCs was not fitted with a Gaussian distribution (Kretschmannova et al., 2013; Nusser and Mody, 2002). Series resistance and whole-cell capacitance were continually monitored and compensated throughout the course of the experiment. Recordings were eliminated from data analysis if series resistance increased by >20%. Spontaneous inhibitory post-synaptic currents (sIPSCs) were analyzed using the mini-analysis software (version 5.6.4; Synaptosoft, Decatur, Ga.). Minimum threshold detection was set to 3 times the value of baseline noise signal. To assess sIPSC kinetics, the recording trace was visually inspected and only events with a stable baseline, sharp rising phase, and single peak were used to negate artifacts due to event summation. Only recordings with a minimum of 200 events fitting these criteria were analyzed. sIPSCs amplitude, and frequency from each experimental condition was pooled and expressed as mean±SEM. To measure sIPSC decay, 100 consecutive events were averaged and the decay was fitted to a double exponential and the weighted decay constant (tw) was determined. Statistical analysis was performed by using Student t-test (paired and unpaired where appropriate), where p<0.05 is considered significant.

T1 sequence (P48169 36-554): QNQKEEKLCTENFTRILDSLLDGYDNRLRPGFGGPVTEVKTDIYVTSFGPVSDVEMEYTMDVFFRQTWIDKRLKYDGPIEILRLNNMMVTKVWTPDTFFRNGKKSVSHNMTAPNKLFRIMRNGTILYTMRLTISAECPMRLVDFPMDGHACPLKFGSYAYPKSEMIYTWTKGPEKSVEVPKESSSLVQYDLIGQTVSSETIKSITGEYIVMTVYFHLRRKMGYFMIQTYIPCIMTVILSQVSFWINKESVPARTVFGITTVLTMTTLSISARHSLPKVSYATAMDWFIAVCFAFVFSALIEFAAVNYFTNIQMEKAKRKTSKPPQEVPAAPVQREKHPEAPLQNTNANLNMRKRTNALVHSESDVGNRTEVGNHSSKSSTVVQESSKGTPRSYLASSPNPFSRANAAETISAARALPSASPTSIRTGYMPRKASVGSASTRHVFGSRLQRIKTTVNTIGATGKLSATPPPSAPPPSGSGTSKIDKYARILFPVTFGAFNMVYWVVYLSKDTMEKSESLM
T1 sequence (P28472 26-473): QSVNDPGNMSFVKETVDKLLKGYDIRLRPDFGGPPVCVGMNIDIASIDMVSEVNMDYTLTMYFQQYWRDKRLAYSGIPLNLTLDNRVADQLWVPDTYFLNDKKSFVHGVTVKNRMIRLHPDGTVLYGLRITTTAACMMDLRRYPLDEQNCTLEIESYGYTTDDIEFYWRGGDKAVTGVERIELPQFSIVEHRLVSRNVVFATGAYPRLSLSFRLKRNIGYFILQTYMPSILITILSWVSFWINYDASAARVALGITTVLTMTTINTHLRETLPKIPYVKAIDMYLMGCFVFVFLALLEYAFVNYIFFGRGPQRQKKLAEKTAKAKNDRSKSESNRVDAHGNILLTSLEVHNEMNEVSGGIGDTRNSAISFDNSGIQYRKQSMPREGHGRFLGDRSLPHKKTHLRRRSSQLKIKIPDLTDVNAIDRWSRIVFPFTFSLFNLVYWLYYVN

C=C[C@]12CCC(=O)C=C1CC[C@H]1[C@@H]3CC[C@H](C(C)=O)[C@@]3(C)CC[C@@H]12 [ORG OD 02-0] was tested, and the “S408/9 phosphorylation in hippocampal slices” value [1] was “regulated”, the “acute modulation of GABA-evoked current (IGABA)” value [2] was “did not acutely modulate; also recorded: does not acutely modulate” and the “GABA-evoked currents (IGABA) over time” value [3] was “sustained increases”. For the same compound, the “amplitude and density of GABAergic tonic current at varying doses” value [4] was “dosage-dependent effect; also recorded: dosage dependent effect”.
